The values that follow come from patent publication US20210195892A1, “COMPOSITION AND METHOD FOR MICROBIAL CONTROL ON MATERIAL SURFACES” (Microban Products Company, priority 2019, published 2021).

The test system of one data set is bacteria. Description: Antibacterial efficacy of treated PP plaques (ISO 22196). The data set is classed as cell-based. The conditions noted are these: for bacterial efficacy per the ISO 22196 test: salts alone in PP, any active concentration up to 1%. As to the method: In addition to processing at 200° C., samples were run with PP at 250° C. to simulate the use of these GRAS acids in polymers that process at higher temperatures than polypropylene. Samples were also run using extended residence times in the injection molding machine (from the normal 30 second residence time to 120 seconds residence time) to simulate a process with a longer cycle time that would hold the polymer material at temperature for an extended period of time—the extended cycle were run at both 200° C. and 240° C.

The nature of data set [1]: Thermogravimetric analysis (TGA) at 10° C./min. The data set is classed as physicochemical. The settings on record: for temperature at which volatization started: TGA 10° C./min, FIG. 2.
The test system of the next data set is Aspergillus niger (An). Description: ASTM E2180 protocol, fungus. The data set is classed as cell-based.

Structures can show the parent of a compound that is named as a salt.

With `C/C=C/C=C/C(=O)[O-].[K+]` [GKS, potassium sorbate], the “bacterial efficacy per the ISO 22196 test” value with bacteria was “no significant bacterial efficacy”.
`O=C(O)CC(O)(CC(=O)O)C(=O)O` [GCA, citric acid]: the “temperature at which volatization started” value (“temperature” for short) in data set [1] is 200 °C. In the data set on bacteria (PP test plaques at 0.5% and 1% active level), the antibacterial efficacy result is “good at the higher level but fell off at the lower level”.
With `O=C(O)c1ccccc1` [GBA, benzoic acid], the “temperature” value in data set [1] was “approximately 100 °C”. The “reduction in fungal growth” value with Aspergillus niger (An) (incorporated into EVA) is listed as “over 90%”. For the same molecule, in the data set on Aspergillus niger (An) (incorporated into PE), the “reductions in fungal growth” value is on record as “over 99%”.
Take `O=C(O)CC(O)(CC(=O)O)C(=O)O` [GNC, sodium citrate]: the “weight loss in TGA” value in data set [1] (TGA 10° C./min up to 275° C., attributed to water content) was “approximately 10%”. The “bacterial efficacy per the ISO 22196 test” value in the data set with bacteria is recorded as “no significant bacterial efficacy”.
Consider `C/C=C/C=C/C(=O)O` [GSA, sorbic acid], for which, in data set [1], the “temperature” value is “approximately 100 °C”. In addition, the “efficacy as low as (level in PP)” value in the data set with bacteria (further experiments, PP) was determined as 1000 ppm.
Consider `O=C([O-])c1ccccc1.[Na+]` [GNB, sodium benzoate], for which the “bacterial efficacy per the ISO 22196 test” value in the data set with bacteria is reported as “no significant bacterial efficacy”.
